Laboratory results published in patent publication EP4786487A1, “PEPTIDE” (Peptidream Inc, priority 2023, dated 2025).
Read-outs that look alike come from different tables or passages of the source. Starred links: 1 amine or outer side, 2 acyl side, 3 side chain; linkers in the order of their positions; H or OH if unused. Positions of bridges follow the written chain, without caps; N, C: chain ends. Non-standard residues stand in square brackets, D forms with d. Residues, ends and D or L forms follow the SMILES beside them. *: point of attachment. Phe(3-OCH2COOH) = N[C@@H](Cc1cccc(OCC(=O)O)c1)C(=O)O; Trp(1-Ph) = N[C@@H](Cc1cn(-c2ccccc2)c2ccccc12)C(=O)O; NMePhe(3-Ph) = CN[C@@H](Cc1cccc(-c2ccccc2)c1)C(=O)O; Trp(6-OH) = N[C@@H](Cc1c[nH]c2cc(O)ccc12)C(=O)O; Phe(4-COOH) = N[C@@H](Cc1ccc(C(=O)O)cc1)C(=O)O; Trp(6-aza) = N[C@@H](Cc1c[nH]c2cnccc12)C(=O)O; Trp(7-aza) = N[C@@H](Cc1c[nH]c2ncccc12)C(=O)O; Piperazinyl(4-CH2COOH) = O=C(O)CN1CCN(*)CC1; Piperidinyl(4-CH2COOH) = O=C(O)CC1CCN(*)CC1; Gly(decyl) = CCCCCCCCCC[C@H](N)C(=O)O; Gly(N(CH2)3COOH) = O=C(O)CCCNCC(=O)O; Gly(octyl) = CCCCCCCC[C@H](N)C(=O)O; NMe4Pal = CN[C@@H](Cc1ccncc1)C(=O)O; X1 = CCCCCCC[C@H](N[*:1])C(=O)[*:2]; Gly(N-(CH2)3OMe) = COCCCNCC(=O)O; NMeF = CN[C@@H](Cc1ccccc1)C(=O)O; NMeE = CN[C@@H](CCC(=O)O)C(=O)O; NMeA = CN[C@@H](C)C(=O)O; Dap = NC[C@H](N)C(=O)O; NEtG = CCNCC(=O)O; Sar = CNCC(=O)O

Key:
Myostatin = molecular target: T1, Myostatin (Homo sapiens, UniProt O14793); test: HepG2 reporter gene assay, Evaluation Procedure (2): 2-concentrations assay, myostatin inhibition; type: cell-based; settings: HepG2
T1 construct: active myostatin (also called mature myostatin) is a homodimer consisting of two C-terminal growth factor domains; purchased R&D systems 788-G8/CF
T1 sequence (O14793 267-375): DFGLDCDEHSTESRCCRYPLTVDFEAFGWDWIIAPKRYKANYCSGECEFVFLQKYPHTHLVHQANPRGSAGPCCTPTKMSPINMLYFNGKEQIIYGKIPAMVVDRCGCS
In short: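 Myostatin inhibition was measured in a luciferase reporter assay using HepG2 cells transfected with a pGL3 vector containing 12 CAGA repeats upstream of luciferase. After 20 to 24 hours with 10 ng/mL myostatin, cells received One-Glo:PBS (1:1) at 100 µL/well, were shaken for 5 min, and 20 µL/well was moved to 384-well plates and read on an Envision 2104.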

GDF-11 = molecular target: T2, GDF-11 (Homo sapiens, UniProt O95390); test: HepG2 reporter gene assay, Evaluation Procedure (2): 2-concentrations assay, GDF-11 inhibition; type: cell-based; settings: for inhibition at 0.03 µM: HepG2, peptide 30nM, read-out: GDF11 Inhibition 30nM; for inhibition at 0.03 µM / inhibition at 0.1 µM: GDF-11 10 ng/mL; for inhibition at 0.1 µM: HepG2, peptide 100nM, read-out: GDF11 Inhibition 100nM; for inhibition: read-out: inhibition rate (GDF-11 inhibition assay)
T2 construct: purchased R&D systems 1958-GD-G8/CF
T2 sequence (O95390 299-407): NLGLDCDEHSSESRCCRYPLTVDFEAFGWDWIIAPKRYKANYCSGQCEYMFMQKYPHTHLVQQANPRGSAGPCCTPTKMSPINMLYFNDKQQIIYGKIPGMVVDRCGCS
In short: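 HepG2 cells carrying the transfected pGL3(CAGA)12-luc reporter, a pGL3 vector with luciferase placed downstream of 12 CAGA repeats, were stimulated with GDF-11 at a final 10 ng/mL together with test peptide. Blank wells received no GDF-11 and no peptide. Plates were incubated 20 to 24 hours at 37°C with 5% CO2. Luminescence from One-Glo substrate was read to calculate percent inhibition.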

[1] = peptide 30nM, Myostatin 10 ng/mL, read-out: Myostatin Inhibition 30nM
[2] = peptide 100nM, Myostatin 10 ng/mL, read-out: Myostatin Inhibition 100nM
[3] = Table 7-3/7-4, myostatin 10 ng/mL, peptide at the higher of the 2 concentrations, read-out: inhibition rate (myostatin inhibition assay)
[4] = Table 7-3/7-4, myostatin 10 ng/mL, peptide at the lower of the 2 concentrations, read-out: inhibition rate (myostatin inhibition assay)
[5] = HepG2, first GDF-11 column of Table 7-3/7-4, GDF-11 10 ng/mL, peptide at the lower of the 2 concentrations
[6] = HepG2, second GDF-11 column of Table 7-3/7-4, GDF-11 10 ng/mL, peptide at the higher of the 2 concentrations

Row | Structure (SMILES) | inhibition at 0.03 µM (Myostatin; [1]) [%] | inhibition at 0.1 µM (Myostatin; [2]) [%] | inhibition at 0.03 µM (GDF-11) [%] | inhibition at 0.1 µM (GDF-11) [%] | inhibition at 0.1 µM (Myostatin; [3]) [%] | inhibition at 0.03 µM (Myostatin; [4]) [%] | inhibition (GDF-11; [5]) [%] | inhibition (GDF-11; [6]) [%]
1 | CCCCCCC[C@@H]1NC(=O)[C@H](Cc2ccncc2)N(C)C(=O)[C@H](CCCNC(=N)N)NC(=O)[C@H](Cc2ccc(C(=O)O)cc2)NC(=O)[C@H](Cc2cccc(OCC(=O)O)c2)NC(=O)CN(C)C(=O)[C@H]([C@@H](C)CC)NC(=O)[C@H](Cc2ccccc2)N(C)C(=O)[C@H](Cc2ccc(O)cc2)NC(=O)[C@H](Cc2c[nH]c3ccccc23)NC(=O)[C@H](C)NC(=O)[C@H](C)NC(=O)CSC[C@H](C(=O)O)NC(=O)[C@H](Cc2ccccc2)N(C)C(=O)[C@H](C)N(C)C1=O [Myostatin_99_v210] ({CH2CO}-AAWY[NMeF]I[Sar][Phe(3-OCH2COOH)][Phe(4-COOH)]R[NMe4Pal][X1][NMeA][NMeF][dC]-OH; thioether N-15) | 95 | 99 | 0 | 7 | – | – | – | –
2 | CCCCCCCCCC[C@@H]1NC(=O)[C@H](Cc2ccccc2)N(C)C(=O)[C@H](CCCNC(=N)N)NC(=O)[C@H](Cc2ccc(C(=O)O)cc2)NC(=O)[C@H](Cc2cccc(OCC(=O)O)c2)NC(=O)CN(CC)C(=O)[C@H]([C@@H](C)CC)NC(=O)[C@H](Cc2ccccc2)N(C)C(=O)[C@H](Cc2ccc(O)cc2)NC(=O)[C@H](Cc2c[nH]c3ccccc23)NC(=O)[C@H](C)NC(=O)[C@H](C)NC(=O)CSC[C@H](C(=O)N2CCC(CC(=O)O)CC2)NC(=O)[C@H](Cc2ccccc2)N(C)C(=O)[C@H](CCC(=O)O)N(C)C1=O [Myostatin_99_v336] ({CH2CO}-AAWY[NMeF]I[NEtG][Phe(3-OCH2COOH)][Phe(4-COOH)]R[NMeF][Gly(decyl)][NMeE][NMeF][dC]-{Piperidinyl(4-CH2COOH)}; thioether N-15) | – | – | – | – | 100 | 99 | 0 | 0
3 | CCCCCCCCCC[C@@H]1NC(=O)[C@H](Cc2ccccc2)N(C)C(=O)[C@H](CCCNC(=N)N)NC(=O)[C@H](Cc2ccc(C(=O)O)cc2)NC(=O)[C@H](Cc2cccc(OCC(=O)O)c2)NC(=O)[C@H]2CCCN2C(=O)[C@H]([C@@H](C)CC)NC(=O)[C@H](Cc2ccccc2)N(C)C(=O)[C@H](Cc2ccc(O)cc2)NC(=O)[C@H](Cc2cn(-c3ccccc3)c3ccccc23)NC(=O)[C@H](C)NC(=O)[C@H](C)NC(=O)CSC[C@H](C(=O)N2CCN(CC(=O)O)CC2)NC(=O)[C@H](Cc2cccc(-c3ccccc3)c2)N(C)C(=O)[C@H](CCC(=O)O)N(C)C1=O [Myostatin_99_v331] ({CH2CO}-AA[Trp(1-Ph)]Y[NMeF]I[dP][Phe(3-OCH2COOH)][Phe(4-COOH)]R[NMeF][Gly(decyl)][NMeE][NMePhe(3-Ph)][dC]-{Piperazinyl(4-CH2COOH)}; thioether N-15) | – | – | – | – | 100 | 100 | 0 | 0
4 | CC[C@H](C)[C@@H]1NC(=O)[C@H](Cc2ccccc2)N(C)C(=O)[C@H](Cc2ccc(O)cc2)NC(=O)[C@H](Cc2c[nH]c3ncccc23)NC(=O)[C@H](C)NC(=O)CN(CCCC(=O)O)C(=O)CSC[C@H](C(N)=O)NC(=O)[C@H](Cc2ccccc2)N(C)C(=O)[C@H](C)N(C)C(=O)[C@H](CC(C)C)NC(=O)[C@H](Cc2ccccc2)N(C)C(=O)[C@H](CCCNC(=N)N)NC(=O)[C@H](Cc2ccc(C(=O)O)cc2)NC(=O)[C@H](Cc2ccccc2)NC(=O)CN(C)C1=O [Myostatin_99_Variant_20] ({CH2CO}-[Gly(N(CH2)3COOH)]A[Trp(7-aza)]Y[NMeF]I[Sar]F[Phe(4-COOH)]R[NMeF]L[NMeA][NMeF][dC]-NH2; thioether N-15) | 62 | 89 | 0 | 0 | – | – | – | –
5 | CCCCCCCC[C@@H]1NC(=O)[C@H](Cc2ccccc2)N(C)C(=O)[C@H](CCCNC(=N)N)NC(=O)[C@H](Cc2ccc(C(=O)O)cc2)NC(=O)[C@H](Cc2cccc(OCC(=O)O)c2)NC(=O)CN(C)C(=O)[C@H]([C@@H](C)CC)NC(=O)[C@H](Cc2ccccc2)N(C)C(=O)[C@H](Cc2ccc(O)cc2)NC(=O)[C@H](Cc2c[nH]c3cc(O)ccc23)NC(=O)[C@H](C)NC(=O)CN(CCCOC)C(=O)CSC[C@H](C(N)=O)NC(=O)[C@H](Cc2ccccc2)N(C)C(=O)[C@H](C)N(C)C1=O [Myostatin_99_v414] ({CH2CO}-[Gly(N-(CH2)3OMe)]A[Trp(6-OH)]Y[NMeF]I[Sar][Phe(3-OCH2COOH)][Phe(4-COOH)]R[NMeF][Gly(octyl)][NMeA][NMeF][dC]-NH2; thioether N-15) | – | – | – | – | 100 | 100 | 0 | 44
6 | CCCCCCC[C@@H]1NC(=O)[C@H](Cc2ccccc2)N(C)C(=O)[C@H](CCCNC(=N)N)NC(=O)[C@H](Cc2ccc(C(=O)O)cc2)NC(=O)[C@H](Cc2cccc(OCC(=O)O)c2)NC(=O)[C@H](C)N(C)C(=O)[C@H]([C@@H](C)CC)NC(=O)[C@H](Cc2ccccc2)N(C)C(=O)[C@H](Cc2ccc(O)cc2)NC(=O)[C@H](Cc2c[nH]c3ccccc23)NC(=O)[C@H](C)NC(=O)CN(CCCC(=O)O)C(=O)[C@H](C)N(C)C(=O)[C@@H](C)NC(=O)[C@H](Cc2ccccc2)N(C)C(=O)[C@H](C)N(C)C1=O [Myostatin_99_v450] (cyclo(AWY[NMeF]I[NMeA][Phe(3-OCH2COOH)][Phe(4-COOH)]R[NMeF][X1][NMeA][NMeF][dA][NMeA][Gly(N(CH2)3COOH)])) | – | – | – | – | 100 | 100 | 0 | 0
7 | CCCCCCCCCC[C@@H]1NC(=O)[C@H](Cc2ccccc2)N(C)C(=O)[C@H](CCCNC(=N)N)NC(=O)[C@H](Cc2ccc(C(=O)O)cc2)NC(=O)[C@H](Cc2cccc(OCC(=O)O)c2)NC(=O)CN(C)C(=O)[C@H]([C@@H](C)OC)NC(=O)[C@H](Cc2ccccc2)N(C)C(=O)[C@H](Cc2ccc(O)cc2)NC(=O)[C@H](Cc2c[nH]c3ccccc23)NC(=O)[C@H](C)NC(=O)[C@H](C)NC(=O)CSC[C@H](C(=O)N2CCC(CC(=O)O)CC2)NC(=O)[C@H](Cc2ccccc2)N(C)C(=O)[C@H](CCC(=O)O)N(C)C1=O [Myostatin_99_v340] ({CH2CO}-AAWY[NMeF]T(Me)[Sar][Phe(3-OCH2COOH)][Phe(4-COOH)]R[NMeF][Gly(decyl)][NMeE][NMeF][dC]-{Piperidinyl(4-CH2COOH)}; thioether N-15) | – | – | – | – | 100 | 95 | 0 | 0
8 | CC[C@H](C)[C@@H]1NC(=O)[C@H](Cc2ccccc2)N(C)C(=O)[C@H](Cc2ccc(O)cc2)NC(=O)[C@H](Cc2c[nH]c3ccccc23)NC(=O)[C@H](CCCNC(=N)N)NC(=O)[C@H](CN)NC(=O)CSC[C@@H](C(N)=O)NC(=O)[C@H](Cc2ccccc2)N(C)C(=O)[C@H](C)N(C)C(=O)[C@H](CC(C)C)NC(=O)[C@H](Cc2ccccc2)N(C)C(=O)[C@H](CCCNC(=N)N)NC(=O)[C@H](Cc2ccc(O)cc2)NC(=O)[C@H](Cc2ccc(O)cc2)NC(=O)CN(C)C1=O [Myostatin_000099_01Dap] ({CH2CO}-[Dap]RWY[NMeF]I[Sar]YYR[NMeF]L[NMeA][NMeF]C-NH2; thioether N-15) | 18 | 62 | 0 | 0 | – | – | – | –
9 | CCCCCCC[C@@H]1NC(=O)[C@H](Cc2ccccc2)N(C)C(=O)[C@H](CCCNC(=N)N)NC(=O)[C@H](Cc2ccc(C(=O)O)cc2)NC(=O)[C@H](Cc2cccc(OCC(=O)O)c2)NC(=O)CN(C)C(=O)[C@H]([C@@H](C)CC)NC(=O)[C@H](Cc2ccccc2)N(C)C(=O)[C@H](Cc2ccc(O)cc2)NC(=O)[C@H](Cc2c[nH]c3cnccc23)NC(=O)[C@H](C)NC(=O)[C@H](C)NC(=O)CSC[C@H](C(=O)O)NC(=O)[C@H](Cc2ccccc2)N(C)C(=O)[C@H](C)N(C)C1=O [Myostatin_99_v208] ({CH2CO}-AA[Trp(6-aza)]Y[NMeF]I[Sar][Phe(3-OCH2COOH)][Phe(4-COOH)]R[NMeF][X1][NMeA][NMeF][dC]-OH; thioether N-15) | 98 | 100 | 0 | 20 | – | – | – | –
